From patent US20220039395A1, “INSECT CONTROL AGENTS” (priority 2018, published 2022)
Entries after “also recorded” stand apart in the source; their conditions may differ. Square brackets hold non-standard residues; d marks the D form. Aib = CC(C)(N)C(=O)O

Experiments:
Myzus persicae [1] = experiment: Cold tolerance bioassay at the discriminating temperature after microinjection; format: in vivo; conditions: M. persicae, 1 h at −9.7° C., survival assessed after 48 h, vs control
Description: Neuropeptides were administered to test aphids via microinjection to allow for rapid mass screening of neuropeptide analogue efficacy. For this, native neuropeptides were diluted in double distilled water (DDH2O) to a concentration of 1×10^−5 M. Neuropeptide analogues were diluted in DDH2O to the following concentrations: kinin analogues 1728 (2.5×10^−5 M), 2139 (3.5×10^−5 M), 2139-Ac (3.5×10^−5 M); CAP2b analogues 1895 (3.5×10^−5 M), 1896 (3.5×10^−5 M), 1902 (3.5×10^−5 M), 2089 (3.9×10^−5 M), 2123 (1.0×10^−5 M), 2125 (1.0×10^−5 M), 2129 (2.0×10^−5 M). […]
For this reason, and given its global pest status, only M. persicae was taken forward in cold stress assays. […] Following exposure, aphids were allowed to recover at the culture temperature in microcages containing excised leaves of the host plant and survival was assessed after 48 h. […]
Survival data were analysed using Probit analysis in MINITAB, version 17 (Minitab Inc., State College, Pa.) and the LT30 (the lethal temperature resulting in 30% mortality of a test population) was elucidated.
Pre-reproductive anholocyclic adult aphids of M. persicae were treated with neuropeptide analogues using the microinjection method detailed above. […] Following exposure, adults were allowed to recover at the culture temperature in microcages containing excised leaves of the host plant and survival was assessed after 48 h. […]

Myzus persicae [2] = experiment: Desiccation/starvation tolerance assay after peptide microinjection; format: in vivo; conditions: Myzus persicae, microinjection; for Documented effect on desiccation/starvation mortality: final concentration ×10^−5 M, relative to vehicle control; for LTime50 (h), test / Median ± IQR survival (h), test: ×10^−5 M, desiccation and starvation stress, test group
Description: (§1) Neuropeptides were administered to test aphids via microinjection to allow for rapid mass screening of neuropeptide analogue efficacy. For this, native neuropeptides were diluted in double distilled water (DDH2O) to a concentration of 1×10^−5 M. Neuropeptide analogues were diluted in DDH2O to the following concentrations: kinin analogues 1728 (2.5×10^−5 M), 2139 (3.5×10^−5 M), 2139-Ac (3.5×10^−5 M); CAP2b analogues 1895 (3.5×10^−5 M), 1896 (3.5×10^−5 M), 1902 (3.5×10^−5 M), 2089 (3.9×10^−5 M), 2123 (1.0×10^−5 M), 2125 (1.0×10^−5 M), 2129 (2.0×10^−5 M). Once at the desired concentration, neuropeptide solutions were administered to test aphids at an injection volume of 9 nl based on total haemolymph volume, to produce an approximate 1:20 dilution of injection volume to haemolymph. Injections were performed using a pulled glass needle and a Nanoject II Auto-Nanoliter Injector (Drummond Scientific Company, Broomall, Pa.). A vehicle control was set up for each treatment/day of experiments to account for variation in needle pulling. For this, control aphids were injected with 9 nl of DDH2O and subsequently exposed to the same experiments as aphids receiving the neuropeptide treatment. Neuropeptide treated and vehicle control aphids were subsequently used in the stress bioassays detailed below.
(§2) Anholocyclic adults of mixed age of either M. persicae or M. rosae were selected from the stock cultures and treated with a native neuropeptide or neuropeptide analogue via microinjection using the method detailed above. Treated and vehicle control aphids were allowed to recover on excised leaves of the host plant for 1 h before being placed in an empty ventilated microcage (L=4 cm, 0=9.5 cm) at densities of 10 per cage. In total, 30-40 aphids were treated for each neuropeptide treatment group and a further 30-40 for the associated vehicle control group. From the point of placement in the microcage (taken as 0 h), aphid survival was checked every hour during daylight hours and approximately every 4 h during night-time hours until the final aphid died. Survival data were subsequently analysed using a Log-rank (Mantel-Cox) text in GraphPad Prism version 7.0. LTime50 (the time taken to kill 50% of the test population) values were calculated via Probit Analysis in Minitab 17 (Minitab Inc., State College, Pa.).

Macrosiphum rosae = experiment: as above; format: in vivo; conditions: Macrosiphum rosae, microinjection; for Documented effect on desiccation/starvation mortality: final concentration ×10^−5 M, relative to vehicle control; for LTime50 (h), test / Median IQR survival (h), test: ×10^−5 M, desiccation and starvation stress, test group
Description: as §1, §2

M. persicae = experiment: Topical application under desiccation/starvation conditions; format: in vivo, Myzus persicae; conditions: data not shown
Description: For peptides 2315, 2320 and 2125, peptides were diluted individually in an Armid FMPC formulation (AkzoNobel Surface Chemistry, Stenungsund, Sweden) to concentration of 1×10^−5 M. Using a Nanoject II Auto-Nanoliter micro-injector, 9 nl of the peptide solution was applied topically to the abdomen of a pre-reproductive adult aphid, coating the cuticle in the solution. Aphids were returned to the host plant and allowed to recover for 24 h before use in experiments. Control aphids were topically applied with 9 nl of the Armid FMPC formulation and, once again, allowed to recover for 24 h on the host plant before use in experiments.
as §2, with “In total, 30-40 aphids were treated for each neuropeptide treatment group and a further 30-40 for the associated vehicle control group. From the point of placement in the microcage (taken as 0 h), aphid survival was checked every hour during daylight hours and approximately every 4 h during night-time hours until the final aphid died.” left out

Substance: Ac-FF[Aib]WG-NH2 [2139-AC, reference compound]
- Effect on survival/mortality under cold stress (Myzus persicae [1]): acting to increase survival relative to the control
- Documented effect on desiccation/starvation mortality (Myzus persicae [2]): No effect
- LTime50 (h), test (Myzus persicae [2]): 19.4 | 16.7 h
- Median ± IQR survival (h), test (Myzus persicae [2]): 22.5 ± 19.8 | 20.0 ± 14.0 h
- Documented effect on desiccation/starvation mortality (Macrosiphum rosae): No effect
- LTime50 (h), test (Macrosiphum rosae): 44.0 | 40.1 h
- Median IQR survival (h), test (Macrosiphum rosae): 39.0 ± 37.0 | 35.0 ± 32.0 h

Substance: 2Abf-Suc-FT[Oic]RV-NH2 [compound 2125]
- effect on mortality (M. persicae): significantly increased mortality
- Documented effect on desiccation/starvation mortality (Myzus persicae [2]): non-significant survival curves; also recorded: No effect
- LTime50 (h), test (Myzus persicae [2]): 10.8 | 13.0 h
- Median ± IQR survival (h), test (Myzus persicae [2]): 11.0 ± 12.0 | 11.0 ± 12.0 h
- Documented effect on desiccation/starvation mortality (Macrosiphum rosae): non-significant survival curves; also recorded: No effect
- LTime50 (h), test (Macrosiphum rosae): 21.6 | 20.1 h
- Median IQR survival (h), test (Macrosiphum rosae): 24.0 ± 9.25 | 20.5 ± 18.0 h
